pEC50: −log10 of the molar value.
These molecules were tested against β1-adrenergic receptor (Homo sapiens (Human), UniProt P08588) (assay: cAMP Gs dynamic HTRF assay, β1 expressing CHO cells). Conditions: B1-AR; CHO-K1 (HitHunter); read-out: Average pEC50 [Receptor subtype: B1-AR; Cell type: CHO-K1 (HitHunter)] (converted).
Assay type: cell-based
Method in brief: (§1)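 Intracellular cAMP quantified by Eu-donor/d2-acceptor HTRF after 30 min compound exposure at 37° C in stimulation buffer with IBMX. Concentrations ran 10 μM top, 5-fold steps, 10 points. Cell lines: 1321N1 astrocytoma and CHO expressing β1 or β2; EC50 via four-parameter fit, relative efficacy against isoproterenol.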

β1-adrenergic receptor, sequence (P08588 whole entry, species assumed): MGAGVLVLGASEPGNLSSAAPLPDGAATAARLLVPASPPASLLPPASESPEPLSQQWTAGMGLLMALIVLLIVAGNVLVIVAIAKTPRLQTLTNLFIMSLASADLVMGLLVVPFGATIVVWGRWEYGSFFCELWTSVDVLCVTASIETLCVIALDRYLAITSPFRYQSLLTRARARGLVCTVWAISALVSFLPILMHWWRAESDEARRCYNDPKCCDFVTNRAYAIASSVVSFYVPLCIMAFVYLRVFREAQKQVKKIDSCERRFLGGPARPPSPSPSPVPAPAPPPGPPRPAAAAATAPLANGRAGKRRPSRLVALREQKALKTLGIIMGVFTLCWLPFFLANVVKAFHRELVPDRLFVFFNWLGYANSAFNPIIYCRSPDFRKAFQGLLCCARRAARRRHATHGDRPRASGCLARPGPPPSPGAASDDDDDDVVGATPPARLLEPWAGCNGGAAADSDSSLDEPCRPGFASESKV

SMILES	EC50
CC(C)NC[C@H](O)c1cccc(C(F)(F)F)n1 [Compound 03-35]	< 10 nM
CCOc1cccc([C@@H](O)CNC(C)(C)C)n1 [Compound 03-177]	10 to 100 nM
Cc1ccc([C@@H](O)CNC(C)(C)C)nc1 [Compound 03-127]	10 to 100 nM
Cc1ccc([C@@H](O)CNC(C)(C)C)nc1C(F)(F)F [Compound 03-167]	< 10 nM
CC(C)(C)NC[C@H](O)c1ccnc(C(F)(F)F)n1 [Compound 03-45]	10 to 100 nM
CCOc1ncccc1[C@@H](O)CNC(C)(C)C [Compound 03-58]	10 to 100 nM
COc1ncccc1[C@@H](O)CNC(C)(C)C [Compound 03-59]	< 10 nM

Same assay, conditions: B1-AR; CHO-K cells; read-out: Average EC50 [Receptor subtype: B1-AR; Cell type: CHO-K]

SMILES	pEC50
CC(C)NC[C@H](O)c1cccc(C(F)(F)F)n1 [Compound 03-35]	> 8.00
CCOc1cccc([C@@H](O)CNC(C)(C)C)n1 [Compound 03-177]	7.00 to 8.00
Cc1ccc([C@@H](O)CNC(C)(C)C)nc1 [Compound 03-127]	7.00 to 8.00
Cc1ccc([C@@H](O)CNC(C)(C)C)nc1C(F)(F)F [Compound 03-167]	> 8.00
CC(C)(C)NC[C@H](O)c1ccnc(C(F)(F)F)n1 [Compound 03-45]	7.00 to 8.00
CCOc1ncccc1[C@@H](O)CNC(C)(C)C [Compound 03-58]	7.00 to 8.00
COc1ncccc1[C@@H](O)CNC(C)(C)C [Compound 03-59]	> 8.00

The molecules below were run against β2 adrenergic receptor (Homo sapiens (Human), UniProt P07550) (assay: cAMP Gs dynamic HTRF assay, β2 expressing CHO cells). Conditions: B2-AR; CHO-K1 (HitHunter); read-out: Average pEC50 [Receptor subtype: B2-AR; Cell type: CHO-K1 (HitHunter)] (converted).
β2 adrenergic receptor, sequence (P07550 whole entry, species assumed): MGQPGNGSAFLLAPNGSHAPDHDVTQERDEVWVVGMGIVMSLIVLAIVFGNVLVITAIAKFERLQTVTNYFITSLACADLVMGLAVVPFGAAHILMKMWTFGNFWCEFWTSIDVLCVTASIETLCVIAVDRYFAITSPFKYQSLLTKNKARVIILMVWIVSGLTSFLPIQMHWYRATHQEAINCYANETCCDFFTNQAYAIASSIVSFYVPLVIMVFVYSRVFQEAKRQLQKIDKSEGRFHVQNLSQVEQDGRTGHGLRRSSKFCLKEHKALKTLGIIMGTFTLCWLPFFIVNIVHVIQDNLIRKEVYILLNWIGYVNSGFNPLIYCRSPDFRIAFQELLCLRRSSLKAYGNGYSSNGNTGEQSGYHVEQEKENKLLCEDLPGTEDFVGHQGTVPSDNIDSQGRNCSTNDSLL
Assay type: cell-based
Method in brief: as §1

SMILES	EC50
CC(C)NC[C@H](O)c1cccc(C(F)(F)F)n1 [Compound 03-35]	10 to 100 nM
CCOc1cccc([C@@H](O)CNC(C)(C)C)n1 [Compound 03-177]	< 10 nM
Cc1ccc([C@@H](O)CNC(C)(C)C)nc1 [Compound 03-127]	10 to 100 nM
Cc1ccc([C@@H](O)CNC(C)(C)C)nc1C(F)(F)F [Compound 03-167]	< 10 nM
CC(C)(C)NC[C@H](O)c1ccnc(C(F)(F)F)n1 [Compound 03-45]	100 to 1000 nM
CCOc1ncccc1[C@@H](O)CNC(C)(C)C [Compound 03-58]	10 to 100 nM
COc1ncccc1[C@@H](O)CNC(C)(C)C [Compound 03-59]	< 10 nM

Same assay, conditions: B2-AR; CHO-K cells; read-out: Average EC50 [Receptor subtype: B2-AR; Cell type: CHO-K]

SMILES	pEC50
CC(C)NC[C@H](O)c1cccc(C(F)(F)F)n1 [Compound 03-35]	7.00 to 8.00
CCOc1cccc([C@@H](O)CNC(C)(C)C)n1 [Compound 03-177]	> 8.00
Cc1ccc([C@@H](O)CNC(C)(C)C)nc1 [Compound 03-127]	7.00 to 8.00
Cc1ccc([C@@H](O)CNC(C)(C)C)nc1C(F)(F)F [Compound 03-167]	> 8.00
CC(C)(C)NC[C@H](O)c1ccnc(C(F)(F)F)n1 [Compound 03-45]	6.00 to 7.00
CCOc1ncccc1[C@@H](O)CNC(C)(C)C [Compound 03-58]	7.00 to 8.00
COc1ncccc1[C@@H](O)CNC(C)(C)C [Compound 03-59]	> 8.00

The molecules below were run against β2 adrenergic receptors in human astrocytoma cells (1321N1) (Homo sapiens (Human), UniProt P07550) (assay: cAMP HTRF assay in human astrocytoma cells (1321N1)). Conditions: Endogenous receptor; 1321N1 cells.
β2 adrenergic receptors in human astrocytoma cells (1321N1), sequence (P07550 whole entry): as the sequence (P07550 whole entry, species assumed) above
Assay type: cell-based
Procedure: cAMP homogeneous time-resolved fluorescence (HTRF). Compound efficacy was determined using the cAMP Gs dynamic HTRF assay (Cisbio, catalog #62AM4PEC) largely following the manufacturer's instructions, also detailed below.
Compound preparation. […] Standard serial dilution curves were 10-point, 5-fold dilutions starting from a highest concentration of 10 μM. […] Assay plates were centrifuged at 500×g for 10 seconds. Compounds and IBMX were prepared at 2× final dose to compensate for addition of cells.
Cell preparation. 1× stimulation buffer, washing PBS (Dulbecco's phosphate-buffered saline, −Mg −Ca; Caisson Labs, catalog #PBL01), assay PBS (Dulbecco's phosphate-buffered saline, +Mg, +Ca; Caisson Labs, catalog #PBL02) and Versene (0.02% EDTA disodium salt solution in PBS without calcium or magnesium; Caisson Labs, catalog #EDL01) were pre-warmed to 37° C. Cells expressing beta-adrenergic receptor were washed in washing PBS to remove growth medium and then released from the surface by incubating with Versene for 5-10 minutes at 37° C. Cells were harvested using assay PBS, counted manually by hemocytometer or by an automated cell counter, pelleted by centrifugation (200×g, 5 minutes) and resuspended in 37° C. 1× stimulation buffer to a final density of 1.5×10^6 cells/mL. 5 μL of the suspended cell solution (7500 cell total) were added to all wells of the 384 well assay plate, the assay plate was covered with an Axygen® plate seal (Corning PCR-SP) and incubated in a humidified 37° C. environment supplemented with 5% CO2 for 30 minutes.
HTRF reagent addition, reading and data analysis. After 30 minutes of cell stimulation with test compound, the assay plates were centrifuged at 500×g for 10 seconds, and incubation was stopped with the addition of 5 μL cAMP-D2 acceptor, diluted 1:21 in detection and lysis buffer 2 (Cisbio 62CL2FDF) was added to all cells. Subsequently, 5 μL Anti-cAMP-Eu Donor, diluted 1:21 in detection and lysis buffer 2, was added to cells. Plates were sealed and reactions gently ‘vortexed’ at 900 rpm on a Heidolph Titramax 1000 for at least 30 minutes at room temperature. Plates were centrifuged again at 500×g for 10 seconds, and HTRF was measured using a Tecan Spark plate reader at 50 flashes per well. […] Potency estimates (EC50) were derived from the four-parameter nonlinear regression of the concentration-effect curve and an estimate of relative efficacy was determined by comparing the magnitude of the test compound HTRF signal window (min−max dose) with the signal window of the full agonist control, isoproterenol.

SMILES	Average pEC50 [Receptor subtype: Endogenous; Cell type: 1321N1]
CCOc1ncccc1[C@@H](O)CNC(C)(C)C [Compound 03-58]	B (B = 8-7)
COc1ncccc1[C@@H](O)CNC(C)(C)C [Compound 03-59]	A (A > 8)

Same assay, conditions: Endogenous receptor; 1321N1 cells; read-out: Average EC50 [Receptor subtype: Endogenous; Cell type: 1321N1]

SMILES	pEC50
CC(C)(C)NC[C@H](O)c1ccnc(C(F)(F)F)n1 [Compound 03-45]	> 8.00
CCOc1ncccc1[C@@H](O)CNC(C)(C)C [Compound 03-58]	7.00 to 8.00
COc1ncccc1[C@@H](O)CNC(C)(C)C [Compound 03-59]	> 8.00

Same assay, conditions: Endogenous receptor; 1321N1 cells; read-out: Average pEC50 [Receptor subtype: Endogenous; Cell type: 1321N1] (converted)

SMILES	EC50
CC(C)NC[C@H](O)c1cccc(C(F)(F)F)n1 [Compound 03-35]	10 to 100 nM
CCOc1cccc([C@@H](O)CNC(C)(C)C)n1 [Compound 03-177]	< 10 nM
Cc1ccc([C@@H](O)CNC(C)(C)C)nc1 [Compound 03-127]	10 to 100 nM
Cc1ccc([C@@H](O)CNC(C)(C)C)nc1C(F)(F)F [Compound 03-167]	< 10 nM

Each molecule was assayed against B3-AR (Homo sapiens (Human), UniProt P13945) (assay: cAMP potency assay, B3-AR expressing CHO-K1 cells). Conditions: not given.
B3-AR, sequence (P13945 whole entry, species assumed): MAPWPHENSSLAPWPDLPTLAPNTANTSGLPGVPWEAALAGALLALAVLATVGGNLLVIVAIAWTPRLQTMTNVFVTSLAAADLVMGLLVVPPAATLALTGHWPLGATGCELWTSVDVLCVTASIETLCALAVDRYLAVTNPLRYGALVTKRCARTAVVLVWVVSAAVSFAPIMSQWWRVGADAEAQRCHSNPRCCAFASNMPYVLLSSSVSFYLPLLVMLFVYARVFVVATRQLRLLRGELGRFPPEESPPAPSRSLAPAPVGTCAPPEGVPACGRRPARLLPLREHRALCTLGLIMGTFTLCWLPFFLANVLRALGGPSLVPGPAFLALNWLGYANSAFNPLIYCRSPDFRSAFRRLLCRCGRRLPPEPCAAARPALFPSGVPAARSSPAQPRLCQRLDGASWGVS
Assay type: cell-based

SMILES	Average pEC50 [Receptor subtype: B3-AR; Cell type: CHO-K1]
CCOc1ncccc1[C@@H](O)CNC(C)(C)C [Compound 03-58]	D (D < 6)
COc1ncccc1[C@@H](O)CNC(C)(C)C [Compound 03-59]	C (C = <7-6)

Same assay, conditions: read-out: Average EC50 [Receptor subtype: B3-AR, Cell type: CHO-K1]

SMILES	pEC50
CC(C)(C)NC[C@H](O)c1ccnc(C(F)(F)F)n1 [Compound 03-45]	> 8.00
CCOc1ncccc1[C@@H](O)CNC(C)(C)C [Compound 03-58]	< 6.00
COc1ncccc1[C@@H](O)CNC(C)(C)C [Compound 03-59]	6.00 to 7.00

Same assay, conditions: read-out: Average pEC50 [Receptor subtype: B3-AR, Cell type: CHO-K1] (converted)

SMILES	EC50
CC(C)NC[C@H](O)c1cccc(C(F)(F)F)n1 [Compound 03-35]	> 1000 nM
CCOc1cccc([C@@H](O)CNC(C)(C)C)n1 [Compound 03-177]	100 to 1000 nM
Cc1ccc([C@@H](O)CNC(C)(C)C)nc1 [Compound 03-127]	> 1000 nM
Cc1ccc([C@@H](O)CNC(C)(C)C)nc1C(F)(F)F [Compound 03-167]	> 1000 nM
